Laboratory results reported in patent publication US8093380B2, “Compounds with the bicyclo[4.2.1]nonane system for the treatment of Flaviviridae infections” (Pharmasset, Inc., priority 2002, dated 2012).
Where a name gives a salt, the structure may show the parent alone.

What was measured:
[1] = Oral and IV administration to rhesus monkeys; assay type: in vivo; settings: 20 mg/kg
[2] = Hematology and blood chemistry in treated chimpanzees; assay type: in vivo
Procedure: Hematology and blood chemistry report. The day 0 and day 14 samples were analyzed for hematological and blood chemistry parameters. Essentially, no changes in the baseline and after treatment samples were observed.

human cell lines = assay: Toxicity in several human cell lines; assay type: cell-based
HCV replicon = HCV replicon system in Huh7 cells (real-time RT-PCR of replicon RNA); assay type: cell-based; settings: for ΔCt HCV at 100 μM / EC50: Huh7 replicon cells; for ΔCt HCV at 100 μM: ΔCt of 3.3 = 1-log reduction in replicon production; for EC50: calculated from ΔCt values of dilution series
Procedure: The HCV replicon system in Huh7 cells.
Huh7 cells harboring the HCV replicon were cultivated in DMEM medium (high glucose, no pyruvate), supplemented with 10% fetal bovine serum, 1× non-essential amino acids, Pen-Strep-Glu (100 units/liter, 100 microgram/liter, and 2.92 mg/liter, respectively), and G418 (500 to 1000 microgram/milliliter). Antiviral screening assays were also done in the same medium without G418 as follows. To keep the cells in the logarithmic growth phase, cells were seeded in 96-well plates at low density (for example, 1000 cells per well). The test compound was then added immediately after seeding the cells, and they were incubated for 3 to 7 days at 37° C. in an incubator. The medium was then removed, and the cells were prepared for total RNA extraction (replicon RNA+host RNA). Replicon RNA was then amplified in a real-time RT-PCR (Q-RT-PCR) protocol, and quantified.
In such experiments, a way to express the antiviral effectiveness of a compound is to subtract the average threshold RT-PCR cycle of the negative control (Ctnegative) from the threshold RT-PCR cycle of the test compound (Cttestcompound). This value is called ΔCt (ΔCt=Cttestcompound−Ctnegative). A ΔCt value of 3.3 represents a 1-log reduction in replicon production.
The ΔCt values for each concentration allow the calculation of the 50% effective concentration (EC50).
Compounds were tested for inhibition of HCV RNA replication using the above assay.

HCV [3] = assay: 14-day oral treatment of chronically HCV-infected chimpanzees, serum HCV viral load by real-time RT-PCR; assay type: in vivo
Procedure: Based on those toxicity data, a 14-day treatment (oral, QD at 5 mg/kg/day) of chronically HCV-infected chimpanzees was conducted. Viral RNA was extracted from the chronically infected chimpanzees serum samples in quadruplicate and the viral RNA pellets were dissolved in RNAse-free water. Subsequently, these RNA samples were amplified by real-time RT-PCR (Applied Biosystems, Foster City, Calif.) for the presence and quantity of the HCV nucleic acids. Primers and probes for HCV were designed using Primer Express (Applied Biosystems). Further details on the methodology will be published (Stuyver et al., 2002; manuscript submitted to Antimicrob. Agents Chemother.).
The results are expressed relative to the viral load in the pretreatment sample. Calculation of the viral load for each sample was based on 4 independent measurements of threshold RT-PCR cycles (Ct values). Mean±SD were calculated for each day's sample. The latter were used to express the observed viral load changes.
Two chimpanzees [Joseph (5.14 log10 IU/ml HCV) and Heppie (5.69 log10 IU/ml HCV)] were treated orally for 14 days with 5 mg/kg/day. The viral load changes that were observed are summarized below (FIG. 1): • 1. […] The viral load remained suppressed with a mean of 0.43 log10 IU/ml up to day 14.

[4] = Toxicity in Swiss outbred mice, IP for 6 consecutive days; assay type: in vivo; settings: up to 100 mg/kg
HCV [5] = settings: ribavirin alone; cited from earlier work

Structure (SMILES) | ΔCt HCV at 100 μM (HCV replicon) | EC50 (HCV replicon; Hepatitis C virus, Huh-7) [µM] | other results
O=c1ccc2nnn3c2n1[C@@H]1O[C@H](C3)C(O)C1O (stereo partly drawn) [15 (Y = H, Z = CH), 9,5′-Cyclo-3-(β-D-ribofuranosyl)-1-deaza-8-azapurine-2-one] | 4.48 | 20 | untoward effects ([1]; IV administration): Neither oral administration nor IV administration to rhesus monkeys at 20 mg/kg caused any untoward effects; untoward effects ([1]; oral administration): Neither oral administration nor IV administration to rhesus monkeys at 20 mg/kg caused any untoward effects; changes in hematological and blood chemistry parameters ([2]; day 0 versus day 14; oral 5 mg/kg/day; Z=CH), 5 mg/kg/day): No change; hematological and blood chemistry parameters relative to normal range ([2]; throughout the study): remained in the normal range; toxicity in several human cell lines (human cell lines): practically no toxicity; in vitro antiviral activity against HCV (HCV replicon; in words): demonstrated in vitro antiviral activity against HCV; reduction in viral load (HCV [3]; day 4, 5 mg/kg/day QD, in words): significant reduction; maximal drop in HCV viral load (HCV [3]; day 4, chimpanzee Heppie, oral 5 mg/kg/day QD): 0.8 log10 IU/ml; maximal drop in HCV viral load (HCV [3]; day 4, chimpanzee Joseph, oral 5 mg/kg/day QD): 0.5 log10 IU/ml; maximal drop in HCV viral load, mean for both animals (HCV [3]; day 4, mean of both chimpanzees, oral 5 mg/kg/day QD): 0.67 log10 IU/ml; viral load changes (HCV [3]; up to 24 hr after administration of the first dose, oral 5 mg/kg/day): No viral load changes were observed; viral load suppression, mean (HCV [3]; up to day 14, oral 5 mg/kg/day QD): 0.43 log10 IU/ml; toxicity [4]: no toxicity was apparent; death or significant weight loss ([4]; 28 day monitoring): None of the mice died or lost significant weight
O=c1ncc2nnn3c2n1[C@@H]1O[C@H](C3)C(O)C1O (stereo partly shown) [15 (Y = H, Z = N)] | 3.6 | < 10 | 
O=c1[nH]c(=O)n2c3c1nnn3CC1OC2C(O)C1O [15 (Y = OH, Z = N), 9,5′Cyclo-3-(β-D-ribofuranosyl)-8-azaxanthine] | 6.3 |  | EC50 (HCV replicon): < 10 µM
O=c1[nH]c(=S)c2nnn3c2n1[C@@H]1O[C@H](C3)C(O)C1O (stereo partly shown) [15 (Y = SH, Z = N)] | 3.61 | < 6 | 
O=c1c(Br)cc2nnn3c2n1[C@@H]1O[C@H](C3)C(O)C1O (stereo partly drawn) [71 (X = Br), 3,5′-Cyclo-6-bromo-4-(β-D-ribofuranosyl)-vic-triazolo[4,5-b]pyridin-5-one] | 5.9 | < 1 | 
O=c1c(Cl)cc2nnn3c2n1[C@@H]1O[C@H](C3)C(O)C1O (stereo partly drawn) [71 (X = Cl), 3,5% Cyclo-6-chloro-4-(β-D-ribofuranosyl)-vic-triazolo[4,5-b]pyridin-5-one] | 6.0 | < 0.7 | 
CNc1nc(=O)n2c3c1nnn3C[C@H]1O[C@@H]2C(O)C1O (stereo partly drawn) [72 (R = H, R′ = Me), 3,5′-Cyclo-7-methylamino-4-(β-D-ribofuranosyl)-vic-triazolo[4,5-b]pyridin-5-one] | 6.6 | < 1 | 
Nc1cc(=O)n2c3c1nnn3C[C@H]1O[C@@H]2C(O)C1O (stereo partly drawn) [72 (R = R′ = H), 7-Amino-3,5′-cyclo-4-(β-D-ribofuranosyl)-vic-triazolo[4,5-b]pyridin-5-one] | 5.7 | 4.5 | 
CC1(C)OC2C(O1)[C@H]1Cn3nnc4c(=S)[nH]c(=O)n(c43)[C@@H]2O1 (stereo partly shown) [73 (Y = SH)] | 4.1 | 25 | 
C/N=c1/[nH]c(=O)n2c3c1nnn3C[C@H]1O[C@@H]2C(O)C1O (stereo partly drawn) [75 (R = Me, R′ = H), 9,5′-Cyclo-3-(β-D-ribofuranosyl)-6-methylamino-8-azaxanthine] | 6.4 | < 6 | 
CO/N=c1/[nH]c(=O)n2c3c1nnn3C[C@H]1O[C@@H]2C(O)C1O (stereo partly drawn) [75 (R = OMe, R′ = H), 9,5′-Cyclo-3-(β-D-ribofuranosyl)-6-methoxylamino-8-azaxanthine] | 6.5 | < 5 | 
Nc1nc(=O)n2c3c1nnn3C[C@H]1O[C@@H]2C(O)C1O (stereo partly drawn) [75 (R = R′ = H), 9,5′-Cyclo-3-(β-D-ribofuranosyl)-6-amino-8-azapurine-2-one hydrochloride] | 5.3 | 0.7 | 
CN(C)c1nc(=O)n2c3c1nnn3C[C@H]1O[C@@H]2C(O)C1O (stereo partly drawn) [75 (R = R′ = Me), 9,5′-Cyclo-3-(β-D-ribofuranosyl)-6-dimethylamino-8-azaxanthine] | 2.4 |  | 
N#CCn1c(=O)c2nnn3c2n(c1=O)[C@@H]1O[C@H](C3)C(O)C1O (stereo partly drawn) [77 (R = CH2CN), 1-Cyanomethyl-9,5′-cyclo-3-(β-D-ribofuranosyl)-8-azaxanthine] | 4.7 | < 6 | 
Cn1c(=O)c2nnn3c2n(c1=O)[C@@H]1O[C@H](C3)C(O)C1O (stereo partly drawn) [77 (R = CH3), 9,5′-Cyclo-1-methyl-3-(β-D-ribofuranosyl)-8-azaxanthine] | 5.9 | 0.4 | 
O=c1ccc2nnn3c2n1[C@@H]1O[C@H](C3)C2OC(=S)OC21 (stereo partly shown) [82 (Y = H, Z = CH)] | 2.6 |  | 
O=c1[nH]c(=O)n2c3c1nnn3C[C@H]1O[C@@H]2C2OC(=S)OC21 (stereo partly drawn) [82 (Y = OH, Z = N), 9,5′-Cyclo-3-(2′,3′O-thiocarbonyl-β-D-ribofuranosyl)-8-azaxanthine] | 4.7 | 12 | 
O=c1ccc2nnn3c2n1[C@H]1CC(O)[C@@H](C3)O1 (stereo partly shown) [83 (Y = H, Z = CH)] | 5.1 | < 6 | 
O=c1[nH]c(=O)n2c3c1nnn3C[C@H]1O[C@@H]2C(O)C1O (stereo partly drawn) [83 (Y = OH, Z = N), 9,5% Cyclo-3-(2′-deoxy-β-D-erythropentofuranosyl)-8-azaxanthine] | 2.1 | 60 | 
Cl.Nc1nc(=O)n2c3c1ncn3C[C@H]1O[C@@H]2C(O)C1O (stereo partly drawn) [Compound 27, 6-Amino-5′,9-cyclo-3-(β-D-ribofuranosyl)-2-oxo-purine HCl salt] | 6.6 | < 3 | 
O=c1[nH]c(=O)n2c3c1ncn3C[C@H]1O[C@@H]2C(O)C1O (stereo partly drawn) [Compound 35, 5′,9-Cyclo-3-(β-D-ribofuranosyl)xanthine] | 6.0 | 4 | 
O=c1[nH]c(=O)n2c3c1nnn3C[C@H]1O[C@@H]2C(O)C1O (stereo partly shown) [Compound 65, 9,5′-Cyclo-carba-8-azaxanthosine] | 2.4 |  | 
OC1C(O)[C@H]2Cn3nnc4ccc(=S)n(c43)[C@@H]1O2 (stereo partly drawn) [Compound 70, 3,5% Cyclo-4-(β-D-ribofuranosyl)-vic-triazolo[4,5-b]pyridin-5-thione] | 7.0 | 1 | 
NC(=O)c1ncn([C@@H]2O[C@H](CO)[C@@H](O)[C@H]2O)n1 [Ribavirin, 1-β-D-ribofuranosyl-1H-1,2,4-triazole-3-carboxamide] |  |  | patients in whom serum amino transferase levels are reduced to normal (HCV [5]): 40%
